Results taken from the kinase profiling compilation of Christmann-Franck et al. (2016).

Tests used:
Experiment in all cases: KINOMEscan competition binding
Details in all cases: compound 10.0 µM
AURKB (human) = AURKB (human) (UniProt Q96GD4)
BRSK2 (human) = BRSK2 (human) (UniProt Q8IWQ3)
CASK (human) = CASK (human) (UniProt O14936)
CDC2L2 (human) = CDC2L2 (human) (UniProt Q9UQ88)
CDK11B (human) = CDK11B (human) (UniProt P21127)
CDK18 (human) = CDK18 (human) (UniProt Q07002)
CDK5 (human) = CDK5 (human) (UniProt Q00535)
CDKL2 (human) = CDKL2 (human) (UniProt Q92772)
CSNK1G1 (human) = CSNK1G1 (human) (UniProt Q9HCP0)
DAPK3 (human) = DAPK3 (human) (UniProt O43293)
DMPK (human) = DMPK (human) (UniProt Q09013)
DYRK1A (human) = DYRK1A (human) (UniProt Q13627)
KIT (human) = KIT (human) (UniProt P10721)
LRRK2 (human) = LRRK2 (human) (UniProt Q5S007)
MAP3K15 (human) = MAP3K15 (human) (UniProt Q6ZN16)
MAPK12 (human) = MAPK12 (human) (UniProt P53778)
NEK9 (human) = NEK9 (human) (UniProt Q8TD19)
NTRK3 (human) = NTRK3 (human) (UniProt Q16288)
PAK2 (human) = PAK2 (human) (UniProt Q13177)
PIK3CB (human) = PIK3CB (human) (UniProt P42338)
PIK3CG (human) = PIK3CG (human) (UniProt P48736)
PIP5K1C (human) = PIP5K1C (human) (UniProt O60331)
PRKAA2 (human) = PRKAA2 (human) (UniProt P54646)
PRKD3 (human) = PRKD3 (human) (UniProt O94806)
[1] = system: RET (human), P07949 [V804L]
RIPK4 (human) = RIPK4 (human) (UniProt P57078)
RPS6KA3 KD1 (human) = RPS6KA3 KD1 (human) (UniProt P51812)
RPS6KA6 KD1 (human) = RPS6KA6 KD1 (human) (UniProt Q9UK32)
RPS6KB1 (human) = RPS6KB1 (human) (UniProt P23443)
AKT2 (human) = AKT2 (human) (UniProt P31751)
CAMK4 (human) = CAMK4 (human) (UniProt Q16566)
DAPK1 (human) = DAPK1 (human) (UniProt P53355)
EPHB2 (human) = EPHB2 (human) (UniProt P29323)
MKNK1 (human) = MKNK1 (human) (UniProt Q9BUB5)
PDPK1 (human) = PDPK1 (human) (UniProt O15530)
RPS6KA5 KD1 (human) = RPS6KA5 KD1 (human) (UniProt O75582)
SGK110 (human) = SGK110 (human) (UniProt P0C264)
TEK (human) = TEK (human) (UniProt Q02763)
TGFBR1 (human) = TGFBR1 (human) (UniProt P36897)

PIK3CB (human), sequence (P42338 whole entry, looked up): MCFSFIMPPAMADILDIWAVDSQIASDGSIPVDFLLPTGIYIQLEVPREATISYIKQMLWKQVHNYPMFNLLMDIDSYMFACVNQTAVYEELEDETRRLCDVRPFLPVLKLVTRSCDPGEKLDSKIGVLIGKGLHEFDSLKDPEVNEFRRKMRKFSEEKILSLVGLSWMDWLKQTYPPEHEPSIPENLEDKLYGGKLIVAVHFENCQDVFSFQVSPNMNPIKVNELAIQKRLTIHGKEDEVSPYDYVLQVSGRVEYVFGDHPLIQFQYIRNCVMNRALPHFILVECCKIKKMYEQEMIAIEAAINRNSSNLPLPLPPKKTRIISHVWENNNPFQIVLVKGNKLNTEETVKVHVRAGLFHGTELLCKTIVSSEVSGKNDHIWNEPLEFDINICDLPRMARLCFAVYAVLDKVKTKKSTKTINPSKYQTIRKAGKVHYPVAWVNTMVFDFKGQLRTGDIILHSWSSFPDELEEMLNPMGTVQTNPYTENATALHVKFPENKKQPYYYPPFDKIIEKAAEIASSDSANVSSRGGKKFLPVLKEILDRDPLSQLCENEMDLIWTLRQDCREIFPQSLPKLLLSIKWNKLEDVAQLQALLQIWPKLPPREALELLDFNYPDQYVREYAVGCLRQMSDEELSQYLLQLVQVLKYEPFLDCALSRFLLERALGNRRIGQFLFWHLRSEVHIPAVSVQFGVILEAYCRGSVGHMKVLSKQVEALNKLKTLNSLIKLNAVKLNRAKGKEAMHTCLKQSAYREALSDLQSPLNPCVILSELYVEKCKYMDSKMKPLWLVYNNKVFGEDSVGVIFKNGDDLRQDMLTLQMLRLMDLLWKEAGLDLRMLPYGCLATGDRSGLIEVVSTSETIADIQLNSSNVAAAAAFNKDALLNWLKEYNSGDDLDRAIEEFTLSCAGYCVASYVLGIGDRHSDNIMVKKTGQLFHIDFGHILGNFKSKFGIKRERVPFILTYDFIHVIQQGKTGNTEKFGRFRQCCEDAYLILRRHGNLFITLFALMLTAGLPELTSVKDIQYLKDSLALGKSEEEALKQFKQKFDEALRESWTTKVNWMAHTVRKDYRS
NTRK3 (human), sequence (Q16288 whole entry, looked up): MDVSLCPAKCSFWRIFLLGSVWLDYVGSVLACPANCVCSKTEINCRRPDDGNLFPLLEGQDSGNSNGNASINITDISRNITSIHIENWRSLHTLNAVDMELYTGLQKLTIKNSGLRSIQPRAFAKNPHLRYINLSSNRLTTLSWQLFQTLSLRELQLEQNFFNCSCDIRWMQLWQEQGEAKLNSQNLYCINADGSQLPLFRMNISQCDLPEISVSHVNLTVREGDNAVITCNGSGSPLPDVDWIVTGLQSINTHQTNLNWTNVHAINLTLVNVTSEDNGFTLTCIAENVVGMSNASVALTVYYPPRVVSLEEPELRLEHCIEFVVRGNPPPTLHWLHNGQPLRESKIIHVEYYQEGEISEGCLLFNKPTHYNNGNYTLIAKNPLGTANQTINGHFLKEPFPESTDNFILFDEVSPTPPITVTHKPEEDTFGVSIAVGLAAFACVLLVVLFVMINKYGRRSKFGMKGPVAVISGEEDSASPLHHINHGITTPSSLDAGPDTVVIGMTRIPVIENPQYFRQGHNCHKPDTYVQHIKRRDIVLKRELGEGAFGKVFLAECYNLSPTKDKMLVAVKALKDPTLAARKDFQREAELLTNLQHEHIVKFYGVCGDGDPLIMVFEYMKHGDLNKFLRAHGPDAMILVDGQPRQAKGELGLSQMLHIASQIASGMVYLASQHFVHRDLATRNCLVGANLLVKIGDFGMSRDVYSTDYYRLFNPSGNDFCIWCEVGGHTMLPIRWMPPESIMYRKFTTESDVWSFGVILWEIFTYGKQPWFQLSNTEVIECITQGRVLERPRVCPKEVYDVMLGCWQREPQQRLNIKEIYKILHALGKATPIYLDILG
RET (human), P07949 [V804L], sequence (P07949 whole entry V804L, looked up): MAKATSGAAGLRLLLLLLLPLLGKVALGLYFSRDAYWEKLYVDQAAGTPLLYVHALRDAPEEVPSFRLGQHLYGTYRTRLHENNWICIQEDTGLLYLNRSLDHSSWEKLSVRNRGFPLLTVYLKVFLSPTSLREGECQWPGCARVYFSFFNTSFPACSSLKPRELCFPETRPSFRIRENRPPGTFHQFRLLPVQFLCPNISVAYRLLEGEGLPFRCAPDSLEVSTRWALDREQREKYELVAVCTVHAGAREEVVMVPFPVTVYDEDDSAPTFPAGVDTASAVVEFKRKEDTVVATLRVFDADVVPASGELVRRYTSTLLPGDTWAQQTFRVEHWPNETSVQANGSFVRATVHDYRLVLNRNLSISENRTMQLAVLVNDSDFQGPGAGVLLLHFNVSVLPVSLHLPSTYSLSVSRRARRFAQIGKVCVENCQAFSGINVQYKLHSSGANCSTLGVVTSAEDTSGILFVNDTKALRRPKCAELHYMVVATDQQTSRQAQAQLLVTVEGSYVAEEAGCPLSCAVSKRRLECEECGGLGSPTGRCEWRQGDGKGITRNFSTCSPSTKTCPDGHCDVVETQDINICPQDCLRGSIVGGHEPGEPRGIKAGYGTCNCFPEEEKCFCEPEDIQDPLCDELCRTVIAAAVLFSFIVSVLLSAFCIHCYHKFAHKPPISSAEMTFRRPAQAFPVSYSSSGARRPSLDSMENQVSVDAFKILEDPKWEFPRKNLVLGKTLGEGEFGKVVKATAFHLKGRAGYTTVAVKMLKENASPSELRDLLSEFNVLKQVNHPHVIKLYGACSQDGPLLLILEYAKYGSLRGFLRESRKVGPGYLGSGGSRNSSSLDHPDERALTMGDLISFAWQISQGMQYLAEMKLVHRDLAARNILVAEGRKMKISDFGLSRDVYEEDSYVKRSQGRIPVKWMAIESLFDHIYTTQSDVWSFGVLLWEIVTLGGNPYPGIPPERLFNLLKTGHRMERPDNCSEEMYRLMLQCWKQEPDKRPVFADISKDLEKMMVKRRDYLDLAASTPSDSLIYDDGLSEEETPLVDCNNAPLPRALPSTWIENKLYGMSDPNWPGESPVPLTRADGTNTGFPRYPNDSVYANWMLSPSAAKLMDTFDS
PIP5K1C (human), sequence (O60331 whole entry, looked up): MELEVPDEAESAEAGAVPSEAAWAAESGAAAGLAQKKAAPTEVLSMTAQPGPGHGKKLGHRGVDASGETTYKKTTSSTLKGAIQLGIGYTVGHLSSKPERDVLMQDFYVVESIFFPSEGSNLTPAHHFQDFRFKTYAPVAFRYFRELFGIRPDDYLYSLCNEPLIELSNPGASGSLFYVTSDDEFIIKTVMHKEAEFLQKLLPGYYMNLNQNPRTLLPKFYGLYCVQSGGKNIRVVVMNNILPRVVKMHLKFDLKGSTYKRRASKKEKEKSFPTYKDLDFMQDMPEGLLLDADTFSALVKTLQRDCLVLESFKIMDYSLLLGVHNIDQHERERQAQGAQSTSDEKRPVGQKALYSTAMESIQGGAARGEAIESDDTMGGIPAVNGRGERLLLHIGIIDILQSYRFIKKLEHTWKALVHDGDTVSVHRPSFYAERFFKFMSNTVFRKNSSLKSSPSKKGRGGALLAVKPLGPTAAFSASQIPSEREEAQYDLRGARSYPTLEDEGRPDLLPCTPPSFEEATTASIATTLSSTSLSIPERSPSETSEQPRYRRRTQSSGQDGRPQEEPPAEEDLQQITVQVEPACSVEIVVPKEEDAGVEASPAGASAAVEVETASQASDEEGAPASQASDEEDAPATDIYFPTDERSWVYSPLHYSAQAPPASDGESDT
PIK3CG (human), sequence (P48736 whole entry, looked up): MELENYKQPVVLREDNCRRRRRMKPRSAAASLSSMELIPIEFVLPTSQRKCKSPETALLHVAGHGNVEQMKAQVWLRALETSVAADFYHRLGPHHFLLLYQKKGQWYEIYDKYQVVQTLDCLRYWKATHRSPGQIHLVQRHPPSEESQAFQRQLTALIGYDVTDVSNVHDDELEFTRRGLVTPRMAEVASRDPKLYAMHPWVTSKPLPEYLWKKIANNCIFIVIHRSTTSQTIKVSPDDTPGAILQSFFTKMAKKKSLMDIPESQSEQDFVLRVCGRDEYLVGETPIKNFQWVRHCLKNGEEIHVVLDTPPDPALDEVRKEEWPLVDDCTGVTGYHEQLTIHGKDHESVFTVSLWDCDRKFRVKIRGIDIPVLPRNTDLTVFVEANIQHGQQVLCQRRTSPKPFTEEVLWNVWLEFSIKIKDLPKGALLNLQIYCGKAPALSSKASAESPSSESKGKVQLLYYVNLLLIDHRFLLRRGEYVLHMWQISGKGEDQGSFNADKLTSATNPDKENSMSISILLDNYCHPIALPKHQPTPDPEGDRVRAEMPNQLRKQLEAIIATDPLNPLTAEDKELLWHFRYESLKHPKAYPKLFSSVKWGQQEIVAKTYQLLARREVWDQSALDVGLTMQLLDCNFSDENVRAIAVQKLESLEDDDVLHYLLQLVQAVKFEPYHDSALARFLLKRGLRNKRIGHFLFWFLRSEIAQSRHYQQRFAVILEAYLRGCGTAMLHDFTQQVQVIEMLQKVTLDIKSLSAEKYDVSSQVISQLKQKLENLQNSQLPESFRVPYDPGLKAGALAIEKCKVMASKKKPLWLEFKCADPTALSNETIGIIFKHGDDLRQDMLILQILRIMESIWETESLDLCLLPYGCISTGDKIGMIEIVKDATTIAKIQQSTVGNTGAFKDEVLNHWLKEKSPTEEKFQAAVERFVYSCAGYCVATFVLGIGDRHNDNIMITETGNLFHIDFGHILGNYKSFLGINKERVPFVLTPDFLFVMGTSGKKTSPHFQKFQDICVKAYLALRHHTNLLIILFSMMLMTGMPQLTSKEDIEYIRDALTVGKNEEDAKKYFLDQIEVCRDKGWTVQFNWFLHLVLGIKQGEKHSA
CDK5 (human), sequence (Q00535 whole entry, looked up): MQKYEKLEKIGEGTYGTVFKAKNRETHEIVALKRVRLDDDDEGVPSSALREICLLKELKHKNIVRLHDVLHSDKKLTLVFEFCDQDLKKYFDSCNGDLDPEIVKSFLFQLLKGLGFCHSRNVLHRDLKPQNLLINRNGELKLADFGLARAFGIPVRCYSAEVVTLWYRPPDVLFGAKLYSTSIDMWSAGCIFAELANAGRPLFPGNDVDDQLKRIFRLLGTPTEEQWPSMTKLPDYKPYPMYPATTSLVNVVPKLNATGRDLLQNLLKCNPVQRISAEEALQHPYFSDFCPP

CC(=O)c1c(C)c2cnc(Nc3ccc(N4CCNCC4)cn3)nc2n(C2CCCC2)c1=O
kinase still bound, per cent of control (AURKB (human)): 48%
kinase still bound, per cent of control (BRSK2 (human)): 80%
kinase still bound, per cent of control (CASK (human)): 60%
kinase still bound, per cent of control (CDC2L2 (human)): 78%
kinase still bound, per cent of control (CDK11B (human)): 93%
kinase still bound, per cent of control (CDK18 (human)): 20%
kinase still bound, per cent of control (CDK5 (human)): 48%
kinase still bound, per cent of control (CDKL2 (human)): 6.8%
kinase still bound, per cent of control (CSNK1G1 (human)): 83%
kinase still bound, per cent of control (DAPK3 (human)): 0.45%
kinase still bound, per cent of control (DMPK (human)): 80%
kinase still bound, per cent of control (DYRK1A (human)): 0.9%
kinase still bound, per cent of control (KIT (human)): 60%
kinase still bound, per cent of control (LRRK2 (human)): 50%
kinase still bound, per cent of control (MAP3K15 (human)): 11%
kinase still bound, per cent of control (MAPK12 (human)): 59%
kinase still bound, per cent of control (NEK9 (human)): 76%
kinase still bound, per cent of control (NTRK3 (human)): 23%
kinase still bound, per cent of control (PAK2 (human)): 93%
kinase still bound, per cent of control (PIK3CB (human)): 7.3%
kinase still bound, per cent of control (PIK3CG (human)): 6.8%
kinase still bound, per cent of control (PIP5K1C (human)): 35%
kinase still bound, per cent of control (PRKAA2 (human)): 40%
kinase still bound, per cent of control (PRKD3 (human)): 0.75%
kinase still bound, per cent of control [1]: 65%
kinase still bound, per cent of control (RIPK4 (human)): 79%
kinase still bound, per cent of control (RPS6KA3 KD1 (human)): 28%
kinase still bound, per cent of control (RPS6KA6 KD1 (human)): 20%
kinase still bound, per cent of control (RPS6KB1 (human)): 36%

CCN(CCO)CCCOc1ccc2c(Nc3cc(CC(=O)Nc4cccc(F)c4)[nH]n3)ncnc2c1
kinase still bound, per cent of control (AKT2 (human)): 90%
kinase still bound, per cent of control (AURKB (human)): 0.2%
kinase still bound, per cent of control (BRSK2 (human)): 100%
kinase still bound, per cent of control (CAMK4 (human)): 100%
kinase still bound, per cent of control (CASK (human)): 88%
kinase still bound, per cent of control (CDC2L2 (human)): 5%
kinase still bound, per cent of control (CDK11B (human)): 6.5%
kinase still bound, per cent of control (CDK18 (human)): 62%
kinase still bound, per cent of control (CDK5 (human)): 100%
kinase still bound, per cent of control (CDKL2 (human)): 18%
kinase still bound, per cent of control (DAPK1 (human)): 80%
kinase still bound, per cent of control (DAPK3 (human)): 82%
kinase still bound, per cent of control (DMPK (human)): 93%
kinase still bound, per cent of control (DYRK1A (human)): 100%
kinase still bound, per cent of control (EPHB2 (human)): 93%
kinase still bound, per cent of control (KIT (human)): 0%
kinase still bound, per cent of control (LRRK2 (human)): 100%
kinase still bound, per cent of control (MAP3K15 (human)): 100%
kinase still bound, per cent of control (MAPK12 (human)): 89%
kinase still bound, per cent of control (MKNK1 (human)): 68%
kinase still bound, per cent of control (NEK9 (human)): 100%
kinase still bound, per cent of control (NTRK3 (human)): 56%
kinase still bound, per cent of control (PAK2 (human)): 100%
kinase still bound, per cent of control (PDPK1 (human)): 100%
kinase still bound, per cent of control (PIK3CB (human)): 81%
kinase still bound, per cent of control (PIK3CG (human)): 100%
kinase still bound, per cent of control (PIP5K1C (human)): 75%
kinase still bound, per cent of control (PRKAA2 (human)): 77%
kinase still bound, per cent of control (PRKD3 (human)): 63%
kinase still bound, per cent of control [1]: 2%
kinase still bound, per cent of control (RIPK4 (human)): 41%
kinase still bound, per cent of control (RPS6KA3 KD1 (human)): 80%
kinase still bound, per cent of control (RPS6KA5 KD1 (human)): 100%
kinase still bound, per cent of control (RPS6KA6 KD1 (human)): 74%
kinase still bound, per cent of control (RPS6KB1 (human)): 13%
kinase still bound, per cent of control (SGK110 (human)): 100%
kinase still bound, per cent of control (TEK (human)): 13%
kinase still bound, per cent of control (TGFBR1 (human)): 98%

COc1cc2c(Nc3ccc(NC(=O)c4ccccc4)cc3)ncnc2cc1OCCCN1CCOCC1
kinase still bound, per cent of control (AKT2 (human)): 100%
kinase still bound, per cent of control (AURKB (human)): 0.15%
kinase still bound, per cent of control (BRSK2 (human)): 100%
kinase still bound, per cent of control (CAMK4 (human)): 100%
kinase still bound, per cent of control (CASK (human)): 100%
kinase still bound, per cent of control (CDC2L2 (human)): 6.9%
kinase still bound, per cent of control (CDK11B (human)): 16%
kinase still bound, per cent of control (CDK18 (human)): 75%
kinase still bound, per cent of control (CDKL2 (human)): 12%
kinase still bound, per cent of control (CSNK1G1 (human)): 97%
kinase still bound, per cent of control (DAPK1 (human)): 84%
kinase still bound, per cent of control (DAPK3 (human)): 100%
kinase still bound, per cent of control (DMPK (human)): 100%
kinase still bound, per cent of control (DYRK1A (human)): 58%
kinase still bound, per cent of control (EPHB2 (human)): 100%
kinase still bound, per cent of control (KIT (human)): 0%
kinase still bound, per cent of control (LRRK2 (human)): 73%
kinase still bound, per cent of control (MAP3K15 (human)): 100%
kinase still bound, per cent of control (MAPK12 (human)): 49%
kinase still bound, per cent of control (MKNK1 (human)): 100%
kinase still bound, per cent of control (NEK9 (human)): 100%
kinase still bound, per cent of control (NTRK3 (human)): 98%
kinase still bound, per cent of control (PAK2 (human)): 89%
kinase still bound, per cent of control (PDPK1 (human)): 100%
kinase still bound, per cent of control (PIK3CB (human)): 81%
kinase still bound, per cent of control (PIK3CG (human)): 100%
kinase still bound, per cent of control (PIP5K1C (human)): 69%
kinase still bound, per cent of control (PRKAA2 (human)): 72%
kinase still bound, per cent of control (PRKD3 (human)): 100%
kinase still bound, per cent of control [1]: 9.6%
kinase still bound, per cent of control (RIPK4 (human)): 56%
kinase still bound, per cent of control (RPS6KA5 KD1 (human)): 100%
kinase still bound, per cent of control (RPS6KA6 KD1 (human)): 68%
kinase still bound, per cent of control (RPS6KB1 (human)): 7.4%
kinase still bound, per cent of control (SGK110 (human)): 100%
kinase still bound, per cent of control (TEK (human)): 33%
kinase still bound, per cent of control (TGFBR1 (human)): 100%
